“And” between values parts separate entries of the source, which are not always exact repeats. Identical values can stand only once. Counter-ions that a name gives are not always drawn. Like-named read-outs stand apart in the source and are kept apart here. Values belong to the compound of their own block, whether it stands above or below them.
What was measured:
[1] = tested on: Diet Induced Obese (DIO) C57BL/6 mice; assay: 10 day DIO mouse model (body weight, food intake, hematology, blood chemistry); assay type: in vivo
From the text: The objective of this study design was to investigate the efficacy of disclosed compounds in a 10 day DIO mouse model. Effects on body weight, food intake, hematology and blood chemistry were the primary readouts of this study design. […] Mice were fed Research Diets D12492 (60% Kcal fat, 20% Kcal carbohydrate and 20% protein) and provided water ad libitum. DIO mice were received and housed in the facility for approximately two weeks prior to the start of test article administration. On Day −4 or −3, mice were randomized into study groups based on body weight and body weights were continued to be recorded daily for the duration of the study. Daily food intake was assessed starting on Study Day −2 by weighing of the food with hopper together to avoid loss of food in transfer.
(§1) Compounds were formulated into a 100% DMSO stock (at 9 mg/mL) prior to the start, and further diluted into the target working concentration using the vehicle of 10% DMSO in water. Prior to test article administration, starting on Day −3 a dosing acclimation occurred with all animals receiving a subcutaneous injection of vehicle (10% DMSO) only for 3 days. Starting on Day 1, test compounds or vehicle were administered based on individual body weight, subcutaneously, once a day for 10 days. All mice were sacrificed on Day 11, 24 hours following the final dosing on Day 10. After sacrifice, whole blood was collected and analyzed for hematology and blood chemistry parameters.
(§2) Compounds were tested vs. vehicle at various doses (1.0, 0.5, 0.3, 0.1, 0.03 mpk sc (mg per kg animal weight delivered subcutaneously), and the results are shown in Table 2 below.

[2] = tested on: Sprague Dawley rats on 45% high fat diet; assay: 11 day rat DIO model (body weight, food intake, hematology, blood chemistries); assay type: in vivo
From the text: The objective of this study design is to investigate the efficacy of disclosed compounds in an 11 day rat DIO model used to screen compounds for pharmacologic efficacy on endpoints related to obesity and metabolism. Effects on body weight, food intake, hematology and blood chemistries were the primary readouts of this study design. […] Rats were fed Research Diets D12451 (45% High Fat) and provided water ad libitum. Rats were received and housed in the facility for at least two or three weeks prior to start of test article administration. On Day −4 or −3, rats were randomized into study groups based on body weight and body weights were continued to be recorded daily for the duration of the study. Daily food intake was assessed starting on Study Day −2 by weighing the hopper including the food to avoid loss of food in transfer.
as §1, with “for 11” for “for 10”, “All animals” for “All mice”, “11, approximately 2” for “11, 24”, “Day 11.” for “Day 10.”
as §2

[3] = tested on: human fibrosarcoma cell line HT-1080; assay: HT-1080 cell proliferation assay (CellTiter-Glo, 72 hours); assay type: cell-based
recombinant human MetAP2 = recombinant human MetAP2 (Homo sapiens (Human), UniProt P50579); assay: recombinant human MetAP2 enzyme inhibition assay (MAS peptide / amino acid oxidase / Amplex UltraRed); assay type: biochemical; conditions: recombinant human MetAP2, 25 minutes at 25° C.
Method: Compounds are tested for their capacity to inhibit recombinant human MetAP2 activity using the following assay.
Flag tagged Human recombinant MetAP2 expressed and isolated for use as the enzyme source. 10 mM stock solutions of compounds were prepared in 100% DMSO and further diluted in 100% DMSO required concentration to 1 mM stocks. The stock compound solutions and DMSO vehicle controls were diluted to target final compound concentrations using assay buffer to a final concentration of 50 mM HEPES containing 100 mM NaCl, pH adjusted to 7.5. The MAS peptide was formulated to a 7.5 mM stock in distilled water and prior to use further diluted 1:4. […] 40 μl of enzyme was mixed with 100 μl of MnCl2 then further diluted in assay buffer to a final concentration of 16 μg/ml. To test for compound effect on MetAP2 enzyme activity, 5 μl of test compound, 10 μl of MAS substrate/amino acid oxidase mixture, 10 μl of MetAP2 was added to test wells in a 384 well black plate with blank wells containing no enzyme, replaced with 10 μl of assay buffer. All compounds were tested in duplicate on two occasions on the same day.
The plate was sealed with a TopSeal A cover and mixed briefly on an orbital mixer at 900 rpm. The plate was incubated for a further 25 minutes at 25° C. […] At the end of the MetAP2 incubation 25 μl Amplex/HRP mixture per well was added and the plate read plate on a plate reader.

[4] = HT-1080, 72 h, read-out: HT-1080 EC50 (nM)
[5] = HT-1080 cells, 72 hours incubation, CellTiter-Glo, read-out: HT-1080 EC50

Sequence of recombinant human MetAP2 (P50579 whole entry): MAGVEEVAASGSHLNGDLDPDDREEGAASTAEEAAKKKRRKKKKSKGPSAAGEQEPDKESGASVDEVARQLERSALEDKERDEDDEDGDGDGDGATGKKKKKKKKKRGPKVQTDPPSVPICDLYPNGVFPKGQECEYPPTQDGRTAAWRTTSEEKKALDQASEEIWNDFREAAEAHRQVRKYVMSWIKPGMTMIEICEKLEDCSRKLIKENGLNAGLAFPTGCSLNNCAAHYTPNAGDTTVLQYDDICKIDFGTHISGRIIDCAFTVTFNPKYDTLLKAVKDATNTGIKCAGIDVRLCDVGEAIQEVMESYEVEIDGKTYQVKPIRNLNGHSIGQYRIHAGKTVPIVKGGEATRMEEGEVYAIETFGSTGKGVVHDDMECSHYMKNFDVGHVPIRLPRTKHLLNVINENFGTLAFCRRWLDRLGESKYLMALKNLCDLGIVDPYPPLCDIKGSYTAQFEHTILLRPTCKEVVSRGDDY

Structure (SMILES): CO[C@@H]1[C@H](OC(=O)N2CC(CCN3CC(C)(O)C3)C2)CC[C@]2(CO2)[C@H]1[C@@]1(C)O[C@@H]1CC=C(C)C [Example 9, (3R,4S,5S,6R)-5-methoxy-4-((2R,3R)-2-methyl-3-(3-methylbut-2-enyl)oxiran-2-yl)-1-oxaspiro[2.5]octan-6-yl 3-(2-(3-hydroxy-3-methylazetidin-1-yl)ethyl)azetidine-1-carboxylate formate]
DIO Mouse 10-day weight loss vs vehicle ([1]; mouse, in vivo): 7.4% | DIO Rat 11-day weight loss vs vehicle ([2]; rat, in vivo, formate): 5.5% and 4.8% | EC50 [3, 4]: < 0.3 nM

Structure (SMILES): CO[C@@H]1[C@H](OC(=O)N2CC(CCN3CC(O)C3)C2)CC[C@]2(CO2)[C@H]1[C@@]1(C)O[C@@H]1CC=C(C)C [Example 6, (3R,4S,5S,6R)-5-methoxy-4-((2R,3R)-2-methyl-3-(3-methylbut-2-enyl)oxiran-2-yl)-1-oxaspiro[2.5]octan-6-yl 3-(2-(3-hydroxyazetidin-1-yl)ethyl)azetidine-1-carboxylate formate]
DIO Mouse 10-day weight loss vs vehicle ([1]; mouse, in vivo): 11.8% | DIO Rat 11-day weight loss vs vehicle ([2]; rat, in vivo, formate): 0.8% and 4.6% | EC50 [3, 4]: < 0.3 nM

Structure (SMILES): CO[C@@H]1[C@H](OC(=O)N2CC(CCN3CC4C(C3)C4(F)F)C2)CC[C@]2(CO2)[C@H]1[C@@]1(C)O[C@@H]1CC=C(C)C (stereo partly drawn) [Example 22, (3R,4S,5S,6R)-5-methoxy-4-((2R,3R)-2-methyl-3-(3-methylbut-2-enyl)oxiran-2-yl)-1-oxaspiro[2.5]octan-6-yl 3-(2-(6,6-difluoro-3-azabicyclo[3.1.0]hexan-3-yl)ethyl)azetidine-1-carboxylate formate]
DIO Mouse 10-day weight loss vs vehicle ([1]; mouse, in vivo): 14% | EC50 [3, 4]: 0.3 to 1.3 nM

Structure (SMILES): CCN(CC)CCC1CCN1C(=O)O[C@@H]1CC[C@]2(CO2)[C@@H]([C@@]2(C)O[C@@H]2CC=C(C)C)[C@@H]1OC (stereo partly drawn) [Example 106, (3R,4S,5S,6R)-5-methoxy-4-((2R,3R)-2-methyl-3-(3-methylbut-2-enyl)oxiran-2-yl)-1-oxaspiro[2.5]octan-6-yl 2-(2-(diethylamino)ethyl)azetidine-1-carboxylate]
DIO Mouse 10-day weight loss vs vehicle ([1]; DIO mouse, 0.1 mpk sc once a day, 10 days): 2% | DIO Rat 11-day weight loss vs vehicle ([2]; DIO rat, 0.5 mpk sc once a day, 11 days): 4.82%

Structure (SMILES): CO[C@@H]1[C@H](OC(=O)N2CC(CCN3CCC(O)CC3)C2)CC[C@]2(CO2)[C@H]1[C@@]1(C)O[C@@H]1CC=C(C)C [Example 7, (3R,4S,5S,6R)-5-methoxy-4-((2R,3R)-2-methyl-3-(3-methylbut-2-en-1-yl)oxiran-2-yl)-1-oxaspiro[2.5]octan-6-yl 3-(2-(4-hydroxypiperidin-1-yl)ethyl)azetidine-1-carboxylate]
DIO Mouse 10-day weight loss vs vehicle ([1]; DIO mouse, 0.3 mpk sc once a day, 10 days): 1.8%

EC50 [3, 5]: < 0.3 nM
Structure (SMILES): CNC(=O)OC1CN(C(=O)O[C@@H]2CC[C@]3(CO3)[C@@H]([C@@]3(C)O[C@@H]3CC=C(C)C)[C@@H]2OC)C1 [Example 74, (3R,4S,5S,6R)-5-methoxy-4-((2R,3R)-2-methyl-3-(3-methylbut-2-enyl)oxiran-2-yl)-1-oxaspiro[2.5]octan-6-yl 3-(methylcarbamoyloxy)azetidine-1-carboxylate]

Structure (SMILES): CCN(CC)CCNC(=O)CCC1CN(C(=O)O[C@@H]2CC[C@]3(CO3)[C@@H]([C@@]3(C)O[C@@H]3CC=C(C)C)[C@@H]2OC)C1 [Example 88, (3R,4S,5S,6R)-5-methoxy-4-((2R,3R)-2-methyl-3-(3-methylbut-2-enyl)oxiran-2-yl)-1-oxaspiro[2.5]octan-6-yl 3-(3-(2-(diethylamino)ethylamino)-3-oxopropyl)azetidine-1-carboxylate formate]
DIO Mouse 10-day weight loss vs vehicle ([1]; mouse, in vivo): 9% | DIO Rat 11-day weight loss vs vehicle ([2]; rat, in vivo): 4.4% | EC50 [3, 4]: 0.3 to 1.3 nM

IC50 (recombinant human MetAP2): < 50000 pM
Structure (SMILES): CO[C@@H]1[C@H](OC(=O)N2CC(CCCN3CCCC3)C2)CC[C@]2(CO2)[C@H]1[C@@]1(C)O[C@@H]1CC=C(C)C [Example 59, (3R,4S,5S,6R)-5-methoxy-4-((2R,3R)-2-methyl-3-(3-methylbut-2-enyl)oxiran-2-yl)-1-oxaspiro[2.5]octan-6-yl 3-(3-(pyrrolidin-1-yl)propyl)azetidine-1-carboxylate formate]
body weight loss vs vehicle at 0.3 mg/kg ([1]; 240 h, DIO mouse, 0.3 mpk sc once a day, 10 days): 9.1%

EC50 [3, 5]: < 0.3 nM
Structure (SMILES): CCN(CC)CCC1CN(C(=O)O[C@@H]2CC[C@]3(CO3)[C@@H]([C@@]3(C)O[C@@H]3CC=C(C)C)[C@@H]2OC)C1 [Example 103, (3R,4S,5S,6R)-5-methoxy-4-((2R,3R)-2-methyl-3-(3-methylbut-2-enyl)oxiran-2-yl)-1-oxaspiro[2.5]octan-6-yl 3-(2-(diethylamino)ethyl)azetidine-1-carboxylate]
